From article PMC5218480 (PLoS ONE, 2017)

Test system: MV-4-11 cells
Assay: Gene expression microarray analysis (Affymetrix PrimeView) and GSEA
Assay type: cell-based, human
Parameters: RFU PODN (11730768_x_at) / Fold change /veh PODN (11730768_x_at) / RFU LINC00158 (11744669_a_at) / Fold change /veh LINC00158 (11744669_a_at) / RFU DUSP10 (11751237_a_at) / Fold change /veh DUSP10 (11751237_a_at) / RFU ID3 (11757404_x_at) / Fold change /veh ID3 (11757404_x_at) / RFU PLEKHG5 (11737974_s_at) / Fold change /veh PLEKHG5 (11737974_s_at) / RFU LRRC4B (11730491_at) / Fold change /veh LRRC4B (11730491_at) / RFU GIMAP4 (11747438_a_at) / Fold change /veh GIMAP4 (11747438_a_at) / RFU KRT8 (11758183_x_at) / Fold change /veh KRT8 (11758183_x_at) / RFU CNN1 (11734310_a_at) / Fold change /veh CNN1 (11734310_a_at) / RFU VPS37D (11726825_at) / Fold change /veh VPS37D (11726825_at) / RFU C10orf10 (11716522_x_at) / Fold change /veh C10orf10 (11716522_x_at) / RFU KIR2DL2 /// KIR2DL4 /// KIR2DL5A /// KIR2DL5B /// KIR2DS1 /// KIR2DS2 /// KIR2DS3 /// KIR2DS4 /// KIR3DL3 /// KIR3DL3 /// KIR3DS1 (11738374_at) / Fold change /veh KIR2DL2 /// KIR2DL4 /// KIR2DL5A /// KIR2DL5B /// KIR2DS1 /// KIR2DS2 /// KIR2DS3 /// KIR2DS4 /// KIR3DL3 /// KIR3DL3 /// KIR3DS1 (11738374_at) / RFU C1QL1 (11718748_at) / Fold change /veh C1QL1 (11718748_at) / RFU TMPRSS4 (11747572_a_at) / Fold change /veh TMPRSS4 (11747572_a_at) / RFU HAMP (11756126_x_at) / Fold change /veh HAMP (11756126_x_at) / RFU RNFT2 (11725882_a_at) / Fold change /veh RNFT2 (11725882_a_at) / RFU NR4A2 (11747474_a_at) / Fold change /veh NR4A2 (11747474_a_at) / RFU ABCC12 (11746883_a_at) / Fold change /veh ABCC12 (11746883_a_at) / RFU TMEM136 (11760407_x_at) / Fold change /veh TMEM136 (11760407_x_at) / RFU CLDN22 /// WWC2 (11732394_at) / Fold change /veh CLDN22 /// WWC2 (11732394_at) / RFU HLA-DPB1 (11760878_x_at) / Fold change /veh HLA-DPB1 (11760878_x_at) / RFU SPINT1 (11716480_a_at) / Fold change /veh SPINT1 (11716480_a_at) / RFU GAP43 (11754022_s_at) / Fold change /veh GAP43 (11754022_s_at) / RFU A4GNT (11735810_at) / Fold change /veh A4GNT (11735810_at) / RFU PRB3 (11715151_x_at) / Fold change /veh PRB3 (11715151_x_at) / RFU TUBB4B (11761932_at) / Fold change /veh TUBB4B (11761932_at) / RFU CAPN14 (11732068_a_at) / Fold change /veh CAPN14 (11732068_a_at) / RFU TMCC2 (11721928_a_at) / Fold change /veh TMCC2 (11721928_a_at) / RFU IRGQ (11745062_a_at) / Fold change /veh IRGQ (11745062_a_at) / RFU FAM174B (11720279_a_at) / Fold change /veh FAM174B (11720279_a_at) / RFU TMPRSS4 (11748680_a_at) / Fold change /veh TMPRSS4 (11748680_a_at) / RFU FAM212B (11763350_a_at) / Fold change /veh FAM212B (11763350_a_at) / RFU PLEKHG5 (11743358_a_at) / Fold change /veh PLEKHG5 (11743358_a_at) / RFU ZSCAN30 (11745921_a_at) / Fold change /veh ZSCAN30 (11745921_a_at) / RFU CMKLR1 (11741424_a_at) / Fold change /veh CMKLR1 (11741424_a_at) / RFU LOC101060620 /// MAPK8IP1 (11723275_at) / Fold change /veh LOC101060620 /// MAPK8IP1 (11723275_at) / RFU SPTSSB (11747773_x_at) / Fold change /veh SPTSSB (11747773_x_at) / RFU PRSS12 (11739890_at) / Fold change /veh PRSS12 (11739890_at) / RFU BIN1 (11741810_x_at) / Fold change /veh BIN1 (11741810_x_at) / RFU WNT11 (11732464_a_at) / Fold change /veh WNT11 (11732464_a_at) / RFU C10orf10 (11716521_a_at) / Fold change /veh C10orf10 (11716521_a_at) / RFU C5orf56 (11738089_at) / Fold change /veh C5orf56 (11738089_at) / RFU CYB561 (11721691_x_at) / Fold change /veh CYB561 (11721691_x_at) / RFU ANKRD19P (11752326_a_at) / Fold change /veh ANKRD19P (11752326_a_at) / RFU OR2T12 /// OR2T33 /// OR2T8 (11738714_s_at) / Fold change /veh OR2T12 /// OR2T33 /// OR2T8 (11738714_s_at) / RFU VCAN (11748164_a_at) / Fold change /veh VCAN (11748164_a_at) / RFU JSRP1 (11732532_at) / Fold change /veh JSRP1 (11732532_at) / RFU KRTAP10-11 (11738290_x_at) / Fold change /veh KRTAP10-11 (11738290_x_at) / RFU MYO3A (11730013_a_at) / Fold change /veh MYO3A (11730013_a_at) / RFU EBF3 (11725865_a_at) / Fold change /veh EBF3 (11725865_a_at) / RFU CAMK2N1 (11719241_x_at) / Fold change /veh CAMK2N1 (11719241_x_at) / RFU C5orf56 (11738088_a_at) / Fold change /veh C5orf56 (11738088_a_at) / RFU OLFML3 (11715873_a_at) / Fold change /veh OLFML3 (11715873_a_at) / RFU LOC100653217 /// NTM (11731650_a_at) / Fold change /veh LOC100653217 /// NTM (11731650_a_at) / RFU MAPK11 (11762145_a_at) / Fold change /veh MAPK11 (11762145_a_at) / RFU FIZ1 (11724087_x_at) / Fold change /veh FIZ1 (11724087_x_at) / RFU OASL (11726364_x_at) / Fold change /veh OASL (11726364_x_at) / RFU SOX15 (11748057_x_at) / Fold change /veh SOX15 (11748057_x_at) / RFU CD79A (11719716_a_at) / Fold change /veh CD79A (11719716_a_at) / RFU HIST1H1D (11736915_at) / Fold change /veh HIST1H1D (11736915_at) / RFU CASKIN2 (11723855_a_at) / Fold change /veh CASKIN2 (11723855_a_at) / RFU LOC730098 (11760151_x_at) / Fold change /veh LOC730098 (11760151_x_at) / RFU OR4N2 (11742367_at) / Fold change /veh OR4N2 (11742367_at) / RFU PRRT2 (11749266_a_at) / Fold change /veh PRRT2 (11749266_a_at) / RFU SNX32 (11753110_a_at) / Fold change /veh SNX32 (11753110_a_at) / RFU CDHR5 (11726645_a_at) / Fold change /veh CDHR5 (11726645_a_at) / RFU RCAN1 (11760418_a_at) / Fold change /veh RCAN1 (11760418_a_at) / RFU FAM167A (11723789_a_at) / Fold change /veh FAM167A (11723789_a_at) / RFU FAM26E (11764081_at) / Fold change /veh FAM26E (11764081_at) / RFU ISYNA1 (11749810_s_at) / Fold change /veh ISYNA1 (11749810_s_at) / RFU ACY1 (11761880_at) / Fold change /veh ACY1 (11761880_at) / RFU 11764098_at / Fold change /veh 11764098_at / RFU SAMD14 (11745864_x_at) / Fold change /veh SAMD14 (11745864_x_at) / RFU NPB (11741838_a_at) / Fold change /veh NPB (11741838_a_at) / RFU TMPRSS6 (11731388_a_at) / Fold change /veh TMPRSS6 (11731388_a_at) / RFU KRTAP10-2 (11738614_at) / Fold change /veh KRTAP10-2 (11738614_at) / RFU ARHGAP8 /// PRR5-ARHGAP8 (11727945_x_at) / Fold change /veh ARHGAP8 /// PRR5-ARHGAP8 (11727945_x_at) / RFU KRTAP5-7 /// NADSYN1 (11734609_at) / Fold change /veh KRTAP5-7 /// NADSYN1 (11734609_at) / RFU RASL12 (11751679_a_at) / Fold change /veh RASL12 (11751679_a_at) / RFU CDKN2B (11736163_a_at) / Fold change /veh CDKN2B (11736163_a_at) / RFU PRF1 (11729649_at) / Fold change /veh PRF1 (11729649_at) / RFU, ZNF638 /// ZNF638-IT1 / Fold change vs veh, ZNF638 /// ZNF638-IT1 / RFU, PANK3 / Fold change vs veh, PANK3 / RFU, SH3YL1 / Fold change vs veh, SH3YL1 / RFU, ZEB2 / Fold change vs veh, ZEB2 / RFU, NRIP1 / Fold change vs veh, NRIP1 / RFU, PTTG1IP / Fold change vs veh, PTTG1IP / RFU, CAPN2 / Fold change vs veh, CAPN2 / RFU, MED14 / Fold change vs veh, MED14 / RFU, SNORA58 / Fold change vs veh, SNORA58 / RFU, C1orf63 / Fold change vs veh, C1orf63 / RFU, LRRFIP1 / Fold change vs veh, LRRFIP1 / RFU, NDUFAF7 / Fold change vs veh, NDUFAF7 / RFU, SLC12A2 / Fold change vs veh, SLC12A2 / RFU, IBTK / Fold change vs veh, IBTK / RFU, ESF1 / Fold change vs veh, ESF1 / Fold change vs veh, TMEM50B / RFU, TAOK1 / Fold change vs veh, TAOK1 / RFU, ACBD3 / Fold change vs veh, ACBD3 / RFU, TMA16 / Fold change vs veh, TMA16 / RFU, RWDD3 / Fold change vs veh, RWDD3 / RFU, BCAT1 / Fold change vs veh, BCAT1 / RFU, EDEM3 / Fold change vs veh, EDEM3 / RFU, TMEM33 / Fold change vs veh, TMEM33 / RFU, WDR75 / Fold change vs veh, WDR75 / RFU, AHCTF1 / Fold change vs veh, AHCTF1 / RFU, TFRC / Fold change vs veh, TFRC / RFU, ZDHHC17 / Fold change vs veh, ZDHHC17 / RFU, NOM1 / Fold change vs veh, NOM1 / RFU, ARL8B / Fold change vs veh, ARL8B / RFU, ZBTB11 / Fold change vs veh, ZBTB11 / RFU, TAMM41 / Fold change vs veh, TAMM41 / RFU, KIAA1704 /// LOC100996395 / Fold change vs veh, KIAA1704 /// LOC100996395 / RFU, ING1 / Fold change vs veh, ING1 / RFU, TRMT61B / Fold change vs veh, TRMT61B / RFU, FUBP3 / Fold change vs veh, FUBP3 / RFU, TP53 / Fold change vs veh, TP53 / RFU, TNKS2 / Fold change vs veh, TNKS2 / RFU, ZFP14 / Fold change vs veh, ZFP14 / RFU, ACTR2 / Fold change vs veh, ACTR2 / RFU, PPP3R1 / Fold change vs veh, PPP3R1 / RFU, PIK3R1 / Fold change vs veh, PIK3R1 / RFU, HNRNPA1 / Fold change vs veh, HNRNPA1 / RFU, RNF170 / Fold change vs veh, RNF170 / RFU, ZNF28 / Fold change vs veh, ZNF28 / RFU, RNGTT / Fold change vs veh, RNGTT / RFU, OGT / Fold change vs veh, OGT / RFU, BRD1 / Fold change vs veh, BRD1 / RFU, MARS / Fold change vs veh, MARS / RFU, ZNF655 / Fold change vs veh, ZNF655 / RFU, FAHD1 / Fold change vs veh, FAHD1 / RFU, BDP1 / Fold change vs veh, BDP1 / RFU, LRRCC1 / Fold change vs veh, LRRCC1 / RFU, ARID1A / Fold change vs veh, ARID1A / RFU, ZNF146 / Fold change vs veh, ZNF146 / RFU, ZNF330 / Fold change vs veh, ZNF330 / RFU, GPN3 / Fold change vs veh, GPN3 / RFU, C9orf123 / Fold change vs veh, C9orf123 / RFU, N4BP2L2 / Fold change vs veh, N4BP2L2 / RFU, ARFIP1 / Fold change vs veh, ARFIP1 / RFU, FAM179B / Fold change vs veh, FAM179B / RFU, BCL10 / Fold change vs veh, BCL10 / RFU, UHRF1BP1L / Fold change vs veh, UHRF1BP1L / RFU, BET1 / Fold change vs veh, BET1 / RFU, CNOT2 / Fold change vs veh, CNOT2 / RFU, ZNF268 / Fold change vs veh, ZNF268 / Fold change vs veh, ZNF507 / RFU, DGCR2 / Fold change vs veh, DGCR2 / RFU, WDSUB1 / Fold change vs veh, WDSUB1 / Fold change vs veh, HSP90B1 /// MIR3652 / RFU, ADSS / Fold change vs veh, ADSS / RFU, GK / Fold change vs veh, GK / RFU, ZNF148 / Fold change vs veh, ZNF148 / RFU, TAF9 / Fold change vs veh, TAF9 / RFU, SLC1A5 / Fold change vs veh, SLC1A5 / RFU, SLMO2 / Fold change vs veh, SLMO2 / RFU, ABCC4 / Fold change vs veh, ABCC4 / RFU, LOC101060439 /// RAP1B / Fold change vs veh, LOC101060439 /// RAP1B / RFU, RFX7 / Fold change vs veh, RFX7 / RFU, GTPBP10 / Fold change vs veh, GTPBP10 / RFU, CNEP1R1 / Fold change vs veh, CNEP1R1 / RFU, BIVM-ERCC5 /// ERCC5 / Fold change vs veh, BIVM-ERCC5 /// ERCC5 / RFU, ILF3 / Fold change vs veh, ILF3 / RFU 11762660_at / Fold change /veh 11762660_at / RFU VCAN (11757783_s_at) / Fold change /veh VCAN (11757783_s_at) / RFU DDX43 (11728927_at) / Fold change /veh DDX43 (11728927_at) / RFU KRT8 (11758188_x_at) / Fold change /veh KRT8 (11758188_x_at) / RFU NKD1 (11759106_at) / Fold change /veh NKD1 (11759106_at) / RFU SRD5A1 (11742802_a_at) / Fold change /veh SRD5A1 (11742802_a_at) / RFU TPSAB1 /// TPSB2 (11721975_s_at) / Fold change /veh TPSAB1 /// TPSB2 (11721975_s_at) / RFU GSTM3 (11746129_a_at) / Fold change /veh GSTM3 (11746129_a_at) / RFU IL23R (11737362_x_at) / Fold change /veh IL23R (11737362_x_at) / RFU TMEM51 (11727254_a_at) / Fold change /veh TMEM51 (11727254_a_at) / RFU PIWIL2 (11732686_x_at) / Fold change /veh PIWIL2 (11732686_x_at) / RFU ORM1 (11744905_x_at) / Fold change /veh ORM1 (11744905_x_at) / RFU CCDC152 (11743942_at) / Fold change /veh CCDC152 (11743942_at) / RFU ECM1 (11717891_a_at) / Fold change /veh ECM1 (11717891_a_at) / RFU IL23R (11748794_a_at) / Fold change /veh IL23R (11748794_a_at) / RFU TNFAIP8L3 (11732012_x_at) / Fold change /veh TNFAIP8L3 (11732012_x_at) / RFU MBOAT4 (11741988_at) / Fold change /veh MBOAT4 (11741988_at) / RFU 11764193_at / Fold change /veh 11764193_at / RFU TMEM53 (11763286_at) / Fold change /veh TMEM53 (11763286_at) / RFU MAGEB2 (11727129_at) / Fold change /veh MAGEB2 (11727129_at) / RFU TMEM200A (11744735_a_at) / Fold change /veh TMEM200A (11744735_a_at) / RFU CCDC152 (11751479_a_at) / Fold change /veh CCDC152 (11751479_a_at) / RFU FAM211A (11726209_a_at) / Fold change /veh FAM211A (11726209_a_at) / RFU RGS16 (11746705_a_at) / Fold change /veh RGS16 (11746705_a_at) / RFU VCAN (11755009_s_at) / Fold change /veh VCAN (11755009_s_at) / RFU RHOB (11743442_s_at) / Fold change /veh RHOB (11743442_s_at) / RFU RGS16 (11720943_a_at) / Fold change /veh RGS16 (11720943_a_at) / RFU RGS16 (11720944_at) / Fold change /veh RGS16 (11720944_at) / RFU, VPS4B / Fold change vs veh, VPS4B / RFU, CREB1 / Fold change vs veh, CREB1 / RFU, DNAJC13 / Fold change vs veh, DNAJC13 / RFU, GNAQ / Fold change vs veh, GNAQ / RFU, CDK5R1 / Fold change vs veh, CDK5R1 / RFU, ZRANB3 / Fold change vs veh, ZRANB3 / RFU, CUL4A / Fold change vs veh, CUL4A / RFU, CCNY / Fold change vs veh, CCNY / RFU, UFL1 / Fold change vs veh, UFL1 / RFU, COG3 / Fold change vs veh, COG3 / RFU, DIAPH2 / Fold change vs veh, DIAPH2 / RFU, SKA2 / Fold change vs veh, SKA2 / RFU, AFF3 / Fold change vs veh, AFF3 / RFU, LMF1 / Fold change vs veh, LMF1 / RFU, IPO11 / Fold change vs veh, IPO11 / RFU, DFFB / Fold change vs veh, DFFB / RFU, FOXP1 / Fold change vs veh, FOXP1 / RFU, CARD8 / Fold change vs veh, CARD8 / RFU, STRN3 / Fold change vs veh, STRN3 / RFU, ADK / Fold change vs veh, ADK / RFU, RASSF2 / Fold change vs veh, RASSF2 / RFU, WIPF1 / Fold change vs veh, WIPF1 / RFU, LARP1B / Fold change vs veh, LARP1B / RFU, RASA1 / Fold change vs veh, RASA1 / RFU, RB1 / Fold change vs veh, RB1 / RFU, PPFIA1 / Fold change vs veh, PPFIA1 / RFU, MAT2A / Fold change vs veh, MAT2A / RFU, CCT5 / Fold change vs veh, CCT5 / RFU, WDR92 / Fold change vs veh, WDR92 / RFU, CUX1 / Fold change vs veh, CUX1 / RFU, TTC7A / Fold change vs veh, TTC7A / RFU, TMEM135 / Fold change vs veh, TMEM135 / RFU, DEPTOR / Fold change vs veh, DEPTOR / RFU, CPM / Fold change vs veh, CPM / RFU, DNAJB6 / Fold change vs veh, DNAJB6 / RFU, CACNA2D3 / Fold change vs veh, CACNA2D3 / RFU, DTX4 / Fold change vs veh, DTX4 / RFU, TFCP2 / Fold change vs veh, TFCP2 / RFU, GMCL1 /// GMCL1P1 / Fold change vs veh, GMCL1 /// GMCL1P1 / RFU, AEBP2 / Fold change vs veh, AEBP2 / RFU, SNHG1 /// SNORD22 /// SNORD25 /// SNORD26 /// SNORD27 /// SNORD28 /// SNORD29 /// SNORD31 / Fold change vs veh, SNHG1 /// SNORD22 /// SNORD25 /// SNORD26 /// SNORD27 /// SNORD28 /// SNORD29 /// SNORD31 / Fold change (Aza/veh), C12orf56 (ProbeSet 11735607_a_at) / Fold change (ACY-1035/veh), C12orf56 (ProbeSet 11735607_a_at) / Fold change (Aza/veh), FGFR1OP (ProbeSet 11751329_s_at) / Fold change (ACY-1035/veh), FGFR1OP (ProbeSet 11751329_s_at) / Fold change (Aza/veh), VPS36 (ProbeSet 11739960_a_at) / Fold change (ACY-1035/veh), VPS36 (ProbeSet 11739960_a_at) / RFU SYPL1 (11715823_x_at) / Fold change /veh SYPL1 (11715823_x_at) / RFU IGFBP7 (11715501_s_at) / Fold change /veh IGFBP7 (11715501_s_at) / RFU REEP3 (11722064_at) / Fold change /veh REEP3 (11722064_at) / RFU IGLL1 (11728026_x_at) / Fold change /veh IGLL1 (11728026_x_at): dose or concentration left out as unconfirmed
Conditions: ProbeSet 11752001_a_at; LIST D

In the case of `Nc1ccc(-c2cccs2)cc1NC(=O)c1ccc2c(c1)cc(C1CC1)n2CCN1CCOCC1` [ACY-1035], the “RFU, CUL4A” value is reported as 438.04 RFU.
